IC50 data for 60 compounds are collected here from patent publication US7507727B2, “Substituted quinobenzoxazine analogs and methods of using thereof” (Cylene Pharmaceuticals, Inc., priority 2003, dated 2009).

Where two headings read alike, the source gives them in different places. Where only a bound is given, the exact number is not on record here.

The assay has as its target c-Myc template DNA (c-myc quadruplex). Kind of assay: Quadruplex binding / stop assay (Taq polymerase arrest, capillary electrophoresis).
The mark [1] stands for this setting: read-out: Stop Data c-Myc μM, concentration at which 50% of the DNA was arrested (arrested:full-length 1:1).
Where [2] appears, read: read-out: S DATA, Table 1D, stop assay data.

`Nc1c(F)c(N2CCC(N)C2)c2c3c1c(=O)c(C(=O)NCCCN1CCOCC1)cn3-c1cc3ccccc3cc1O2` (stereo not drawn) [compound 235]: under setting [1], the IC50 amounted to 1.75 µM. On the same count and under the same terms, the result for `Nc1c(F)cc2c(=O)c(C(=O)O)cn3c2c1Oc1c-3ccc2ccccc12` [compound 16] reads 0.9 µM; that for `NC1CCN(c2c(F)cc3c(=O)c(C(=O)NCc4nc5ccccc5[nH]4)cn4c3c2Oc2cc3ccccc3cc2-4)C1` (stereo not drawn) [compound 196], 1.75 µM. `CN(C)CCCCNC(=O)c1cn2c3c(c(NCCCCN(C)C)ccc3c1=O)Oc1cc3ccccc3cc1-2` [compound 277]: the IC50 under setting [1] stood at 1.75 µM. In the case of `COc1ccc2c(CCNc3c(F)cc4c(=O)c(C(=O)NCCC5CCCN5C)cn5c4c3Oc3cc4ccccc4cc3-5)c[nH]c2c1` (stereo not drawn) [compound 288], the IC50 under setting [1] came to 1.75 µM. Consider `CN1CCCC1CCNC(=O)c1cn2c3c(c(N(C)C4CCN(Cc5ccccc5)CC4)c(F)cc3c1=O)Oc1cc3ccccc3cc1-2` (stereo not drawn) [compound 1487], for which the IC50 under setting [2] was determined as 1.75 µM.

Consider `N=C(N)NCCCCNC(=O)c1cn2c3c(c(N4CC5CCCNC5C4)c(F)cc3c1=O)Oc1cc3ccccc3cc1-2` (stereo not drawn) [compound 1648], for which the IC50 under setting [2] worked out at 1 µM. As to `O=C(NCCCN1CCOCC1)c1cn2c3c(c(NCCN4CCCC4)c(F)cc3c1=O)Oc1cc3c(cc1-2)oc1ccccc13` [compound 160], under setting [1], the IC50 turned out to be 1.75 µM. On the same count and under the same terms, as for `CN(C)CCCNc1c(F)cc2c(=O)c(C(=O)NCCC3CCCN3C)cn3c2c1Oc1cc2ccccc2cc1-3` (stereo not drawn) [compound 437], the figure is 0.75 µM. Regarding `CN1CCN(CCCNc2c(F)cc3c(=O)c(C(=O)NCCN4CCCC4)cn4c3c2Oc2cc3ccccc3cc2-4)CC1` [compound 395], under setting [1], the IC50 worked out at 0.75 µM. `COc1ccc(CCNc2c(F)cc3c(=O)c(C(=O)NCCC4CCCN4C)cn4c3c2Oc2cc3ccccc3cc2-4)cc1` (stereo not drawn) [compound 1663]: the IC50 under setting [2] was found to be 1.75 µM. The same measure, in the same setting: as for `O=C(NCCN1CCCC1)c1cn2c3c(c(NCC4CCCO4)c(F)cc3c1=O)Oc1cc(Cl)ccc1-2` (stereo not drawn) [compound 1794], the figure is above 15 µM. Turning to `N=C(N)NCCCCNC(=O)c1cn2c3c(c(NCCN4CCCC4)c(F)cc3c1=O)Oc1cc3ccccc3cc1-2` [compound 334], under setting [1], the IC50 came out at 1 µM. For the compound `CC(C)N1CCN(c2c(F)cc3c(=O)c(C(=O)NCCN4CCCC4)cn4c3c2Oc2ccccc2-4)CC1` [compound 1566], under setting [2], the IC50 was above 15 µM. With `CN(C)CCCCNC(=O)c1cn2c3cc4oc5cc([N+](=O)[O-])ccc5[nH]c4cc3oc3c(NCCC4CCCN4C)c(F)cc(c1=O)c32` (stereo not drawn) [compound 585], the IC50 under setting [1] turned out to be 0.18 µM.

Consider `CN(C)/C=N/C1CCN(c2c(F)cc3c(=O)c(C(=O)NCCC4CCCN4C)cn4c3c2Oc2cc3ccccc3cc2-4)C1` (stereo not drawn) [compound 98], for which the IC50 under setting [1] came out at 2.5 µM. Same read-out and setting: the result for `CN1CCCC1CCNC(=O)c1cn2c3c(c(NCCCN4CCOCC4)c(F)cc3c1=O)Oc1c-2ccc2ccccc12` (stereo not drawn) [compound 128] reads 1.75 µM.

`CN1CCCC1CCNC(=O)c1cn2c3c(c(NCCCNC(=O)OC(C)(C)C)c(F)cc3c1=O)Oc1cc3ccccc3cc1-2` (stereo not drawn) [compound 1689]: the IC50 under setting [2] turned out to be 1.75 µM.

`CC(C)N1CCN(c2c(F)cc3c(=O)c(C(=O)NCCCN4CCOCC4)cn4c3c2Oc2cc(Cl)ccc2-4)CC1` [compound 1792]: the IC50 under setting [2] was above 15 µM. Still for that read-out and setting: the result for `O=C(NCCN1CCCC1)c1cn2c3c(c(N4CCN(Cc5ccc[nH]5)CC4)c(F)cc3c1=O)Oc1cc(Cl)ccc1-2` [compound 1833] reads 10 µM; that for `N=C(N)NCCCNC(=O)c1cn2c3c(c(NCCN4CCCC4)c(F)cc3c1=O)Oc1cc3ccccc3cc1-2` [compound 1654], 1 µM; that for `CCN(CC)CCCC(C)NC(=O)c1cn2c3c(c(N4CCC(c5cnccn5)C4)c(F)cc3c1=O)Oc1cc3ccccc3cc1-2` (stereo not drawn) [compound 1719], 3 µM. Take `CN1CCN(CCCNC(=O)c2cn3c4c(c(NCCC5CCCN5C)c(F)cc4c2=O)Oc2c-3ccc3ccccc23)CC1` (stereo not drawn) [compound 549]: under setting [1], the IC50 turned out to be 0.375 µM. The same measure, in the same setting: the result for `NC1CCN(c2c(F)cc3c(=O)c(C(=O)NN4CCCCC4)cn4c3c2Oc2cc3ccccc3cc2-4)C1` (stereo not drawn) [compound 244] reads 1.75 µM; that for `O=C(O)c1cn2c3c(c(NCCCN4CCOCC4)c(F)cc3c1=O)Oc1cc3c(O)ncnc3cc1-2` [compound 12], 1.75 µM; that for `CN1CCCC1CCNc1ccc2c(=O)c(C(=O)NC3CC(C)(C)NC(C)(C)C3)cn3c2c1Oc1cc2ccccc2cc1-3` (stereo not drawn) [compound 270], 1.75 µM. Take `O=C(NCCN1CCCC1)c1cn2c3c(c(SCCc4cnccn4)c(F)cc3c1=O)Oc1ccc(Cl)cc1-2` [compound 1783]: the IC50 under setting [2] was above 15 µM. For the compound `CN1CCCC1CCNC(=O)c1cn2c3cc4c(=O)c5ccccc5c(=O)c4cc3oc3c(NCCCN4CCOCC4)c(F)cc(c1=O)c32` (stereo not drawn) [compound 348], under setting [1], the IC50 turned out to be 0.9 µM.

Take `CN1CCCC1CCNC(=O)c1cn2c3c(c(NCCCn4ccnc4)c(F)cc3c1=O)Oc1cc3ccccc3cc1-2` (stereo not drawn) [compound 335]: the IC50 under setting [1] was 1 µM. On the same count and under the same terms, the result for `O=C(NCCN1CCCC1)c1cn2c3c(c(F)c(F)cc3c1=O)Oc1cc3c(cc1-2)oc1ccccc13` [compound 113] reads 1.75 µM; that for `CN1CCN(CCCNC(=O)c2cn3c4c(c(NCCN5CCOCC5)c(F)cc4c2=O)Oc2cc4ccccc4cc2-3)CC1` [compound 55], 2.5 µM; that for `CN1CCCC1CCNC(=O)c1cn2c3c(c(NCCN4CCOCC4)c(F)cc3c1=O)Oc1cc3c(cc1-2)oc1ccccc13` (stereo not drawn) [compound 147], 1.75 µM. Still for that read-out and setting: as for `CCCCN1CCC(CNC(=O)c2cn3c4c(c(N5CCC(N)C5)c(F)cc4c2=O)Oc2cc4ccccc4cc2-3)CC1` (stereo not drawn) [compound 302], the figure is 1.75 µM. On to `CN(C)CCCCNC(=O)c1cn2c3c(c(NCCCN4CCN(C)CC4)c(F)cc3c1=O)Oc1ccccc1-2` [compound 1578], for which, under setting [2], the IC50 was above 15 µM. `CN(C)CCCCNc1c(F)cc2c(=O)c(C(=O)O)cn3c2c1Oc1c-3ccc2ccccc12` [compound 4]: the IC50 under setting [1] came to 1.76 µM. Take `CN1CCN(CCCNc2c(F)cc3c(=O)c(C(=O)NCCC4CCCN4C)cn4c3c2Oc2ccccc2-4)CC1` (stereo not drawn) [compound 1576]: the IC50 under setting [2] is above 15 µM. Turning to `CC1CCCN(CCCNC(=O)c2cn3c4c(c(N5CCC(N)C5)c(F)cc4c2=O)Oc2cc4ccccc4cc2-3)C1` (stereo not drawn) [compound 301], under setting [1], the IC50 was 1.75 µM.

Consider `CC(C)(C)OC(=O)NC1CCN(c2c(F)cc3c(=O)c(C(=O)NCc4nc5ccccc5[nH]4)cn4c3c2Oc2cc3ccccc3cc2-4)C1` (stereo not drawn) [compound 184], for which the IC50 under setting [1] came to 1.75 µM.

`CN1CCN(CCCNC(=O)c2cn3c4cc5c(=O)c6ccccc6c(=O)c5cc4oc4c(F)c(F)cc(c2=O)c43)CC1` [compound 344]: the IC50 under setting [1] stood at 0.9 µM.

For `CN1CCN(CCCNC(=O)c2cn3c4c(c(N5CCC(N)C5)c(F)cc4c2=O)Oc2ccccc2-3)CC1` (stereo not drawn) [compound 1621], under setting [2], the IC50 amounted to 0.75 µM. As for `CN(C)CCCCNc1c(F)cc2c(=O)c(C(=O)NCCCN3CCOCC3)cn3c2c1Oc1cc2c(cc1-3)oc1ccccc12` [compound 162], under setting [1], the IC50 was found to be 1.75 µM. With `O=C(NCCN1CCCC1)c1cn2c3c(c(N4CCOCC4)c(F)cc3c1=O)Oc1cc(Cl)ccc1-2` [compound 1815], the IC50 under setting [2] is 10 µM.

On to `CC(C)(C)OC(=O)NC1CCN(c2c(F)cc3c(=O)c(C(=O)NCCN4CCOCC4)cn4c3c2Oc2ccccc2-4)C1` (stereo not drawn) [compound 1584], for which, under setting [2], the IC50 was above 15 µM. For the compound `CN1CCCC1CCNC(=O)c1cn2c3c(c(NC(=O)CCN4CCCC4)c(F)cc3c1=O)Oc1cc3ccccc3cc1-2` (stereo not drawn) [compound 89], the IC50 under setting [1] came out at 2.5 µM. On the same count and under the same terms, as for `O=C(NCCCN1CCOCC1)c1cn2c3c(c(NCCCN4CCOCC4)c(F)cc3c1=O)Oc1ccccc1-2` [compound 47], the figure is 2.5 µM; as for `CN1CCN(CCCNC(=O)c2cn3c4c(c(NCCN5CCOCC5)c(F)cc4c2=O)Oc2c-3ccc3ccccc23)CC1` [compound 130], 1.75 µM; as for `CN(C)CCCCNc1c(F)cc2c(=O)c(C(=O)NCCN3CCCC3)cn3c2c1Oc1c-3ccc2ccccc12` [compound 498], 0.41 µM. As for `CC(C)N1CCN(c2c(F)cc3c(=O)c(C(=O)NCCN4CCCC4)cn4c3c2Oc2ccc(C#N)cc2-4)CC1` [compound 1796], the IC50 under setting [2] is above 15 µM. Turning to `CC(C)(C)OC(=O)N[C@H]1CCN(c2c(F)cc3c(=O)c(C(=O)NCCCN4CCOCC4)cn4c5cc6c(cc5oc2c34)c(=O)c2ccccc26)C1` [compound 204], the IC50 under setting [1] was 1.75 µM.

`CN1CCN(CCCNC(=O)c2cn3c4c(c(N5CCC(NC(=O)OC(C)(C)C)C5)c(F)cc4c2=O)Oc2ccccc2-3)CC1` (stereo not drawn) [compound 1585]: the IC50 under setting [2] is above 15 µM.

Turning to `CC(C)(C)OC(=O)NC1CCN(c2c(F)cc3c(=O)c(C(=O)NCCCN4CCOCC4)cn4c3c2Oc2ccccc2-4)C1` (stereo not drawn) [compound 1583], the IC50 under setting [2] was above 15 µM.

Turning to `NC1CCN(C(=O)c2cn3c4c(c(N5CC6CCCNC6C5)c(F)cc4c2=O)Oc2cc4ccccc4cc2-3)C1` (stereo not drawn) [compound 1638], the IC50 under setting [2] turned out to be 1.75 µM. The same measure, in the same setting: as for `CN1CCCC1CCNC(=O)c1cn2c3c(c(N(C)C4CCCCNC4)c(F)cc3c1=O)Oc1cc3ccccc3cc1-2` (stereo not drawn) [compound 1510], the figure is above 15 µM. As to `CC1CCCN(CCCNc2c(F)cc3c(=O)c(C(=O)NCCC4CCCN4C)cn4c3c2Oc2cc3ccccc3cc2-4)C1` (stereo not drawn) [compound 295], the IC50 under setting [1] is 1.75 µM. The same measure, in the same setting: as for `O=C(O)c1cn2c3cc4c(cc3oc3c(F)c(F)cc(c1=O)c32)c(=O)c1ccccc14` [compound 320], the figure is 1 µM.

As for `C[N+]1([O-])CCC[C@@H]1CCNC(=O)c1cn2c3c(c(N4CCC(c5cnccn5)C4)c(F)cc3c1=O)Oc1cc3ccccc3cc1-2` (stereo partly drawn) [compound 1766], the IC50 under setting [2] came out at 6.3 µM.

As to `CN(C)CC(C)(C)CNC(=O)c1cn2c3c(c(N4CCC(N)C4)c(F)cc3c1=O)Oc1ccccc1-2` (stereo not drawn) [compound 1625], under setting [2], the IC50 was above 15 µM. The same measure, in the same setting: as for `CN1CCCC1CCNC(=O)c1cn2c3c(c(N4CCC(c5cccnc5)C4)c(F)cc3c1=O)Oc1cc3ccccc3cc1-2` (stereo not drawn) [compound 1508], the figure is 0.75 µM; as for `CC1(C)CC(NC(=O)c2cn3c4c(c(NCCN5CCCC5)ccc4c2=O)Oc2cc4ccccc4cc2-3)CC(C)(C)N1` [compound 1519], 0.75 µM; as for `CN1CCCC1CCNc1ccc2c(=O)c(C(=O)NCCN3CCOCC3)cn3c2c1Oc1cc2ccccc2cc1-3` (stereo not drawn) [compound 1527], 1.75 µM.
